Experiment [1] deals with HER2-overexpressing human gastric cancer cell line NCI-N87. In words: NCI-N87 subcutaneous xenograft, zongertinib with T-DM1. The note with it: for Regressions >30% / TGI: day 21; for Regressions >30%: tumors regressed/total; for Time to reach 300 mm^3: median, after stop of treatment at day 21. It is filed as in vivo, NMRI-Foxn1^nu mice. The protocol: The study is performed in human gastric cancer cell line NCI-N87 grown as subcutaneous xenografts in NMRI-Foxn1^nu mice. Day 1 was the first day, day 21 the last day of treatment and day 22 the final day of analysis. […]
NCI-N87 is a HER2-overexpressing human gastric cancer cell line that can be obtained from the American Type Culture Collection (ATCC #CRL-5822). Cells are cultured in T175 tissue culture flasks at 37° C. and 5% CO2. The medium used is RPMI 1640 (ATCC #30-2001) supplemented with 10% fetal calf serum (FCS) (Thermo Scientific #SH 30084.03). Cultures are split twice weekly with a ratio of 1:2.
Mice are 6- to 10-week-old female NMRI-Foxn1^nu purchased from Taconic, Denmark. After arrival at the animal facility, mice are allowed to adjust to conditions at least for 5 days before they are used for the experiment. They are housed in Macrolon® type III cages in groups of 8 to 10 under pathogen-free, controlled and standardized conditions at 21.5±1.5° C. temperature, 55±10% humidity and 12-h light-dark cycle. Standardized diet (PROVIMI KLIBA) and autoclaved tap water are provided ad libitum. Subcutaneous microchips implanted under isoflurane anaesthesia are used to identify each mouse. Cage cards showing the study number, the animal identification number, the compound, the dose level, the administration route as well as the schedule remain with the animals throughout the study.
To establish subcutaneous tumors, NCI-N87 cells are harvested by centrifugation, washed and resuspended in PBS+5% FCS at 2.5×10^7 cells/ml. 100 μl cell suspension containing 2.5×10^6 cells is injected subcutaneously into the right flank of the mice (1 site per mouse).
The suspension is used for a maximum of 7 days.
T-DM1 (Kadcyla) can be purchased from Roche.
Mice in the control group are treated with vehicle, i.e.: • (i) 0.5% Natrosol, administered once daily for the duration of the treatment intragastrally by gavage needle with a volume of 10 ml/kg body weight; and • (ii) saline (0.9%), administered once every three weeks intravenously into the tail vein with a volume of 5 ml/kg.
Tumor volumes are measured three times a week with a caliper. The volume of each tumor [in mm^3] is calculated according to the formula: […]
To monitor side effects of treatment, mice are inspected daily for abnormalities and body weight is determined three times a week. […] In addition, animals with tumor sizes exceeding 1500 mm^3 in diameter, with ulcerating tumors or 18% body weight loss are euthanized for ethical reasons.
For a quick overview of possible treatment effects, the median of the tumor volume of each treatment group T is referred to the median of the control C as tumor growth inhibition (TGI) defined as: […]
To do so, the time until the tumor reached a critical volume of 300 mm^3 can be included as an additional evaluation parameter. If an animal is sacrificed for tumor necrosis without reaching the critical tumor volume, the time point is set to the last measurement time point and included as a censored observation.
The median survival time is derived from the Kaplan Meier survival curves per group as the time point with a survival probability (probability of reaching the critical tumor volume) of 0.5. For the treatment groups the median survival time is referred to the corresponding time of the control group as an estimate for the prolongation of the time to critical tumor volume by the therapy.

For experiment [2], the system named is HER2-overexpressing human breast cancer cell line SUM190PT. In words: SUM190PT subcutaneous xenograft, zongertinib with T-DM1. It is filed as in vivo, NMRI-Foxn1^nu mice. The note with it: day 21, alone or combined; for stable disease: number of tumors out of 8, zongertinib 20 mg/kg qdx21, T-DM1 3 mg/kg q21dx1; for Regressions >30%: tumors regressed/total (partial response); for Regressions >30% / TGI: zongertinib 20 mg/kg qdx21 p.o., T-DM1 3 mg/kg q21dx1 i.v. Here is the method: The study is performed in human breast cancer cell line SUM190PT grown as subcutaneous xenografts in NMRI-Foxn1^nu mice. Day 1 was the first day, day 21 the last day of treatment and final day of analysis.
SUM190PT is a HER2-overexpressing human breast cancer cell line that can be obtained from Asterand Bioscience (BioIVT). Cells are cultured in T75, T175 and 5-Layer tissue culture flasks at 37° C. and 5% CO2. The medium used is ACL-4 (Thermo Fisher Scientific #041-95574M Custom Batch) supplemented with 0.5% bovine serum albumin (JHR 85-041-025), 0.02 mg/ml insulin (Sigma I5500), 0.01 mg/ml transferrin (Sigma T-2252), 25 nM sodium selenite (Sigma S9133), 50 nM Hydrocortisone (Sigma H-4001), 1 ng/ml Epidermal Growth Factor (unfiltered, Sigma E4127), 0.01 mM ethanolamine (Sigma E-0135), 0.01 mM phosphorylethanolamine (Medchem HY-N5034), 100 pM triiodothyronine (Sigma T5516), 0.5 mM sodium pyruvate (Sigma S8636) and 2 mM L-glutamine (Gibco 11539876). Cultures are split once weekly with a ratio of 1:2.
To establish subcutaneous tumors, SUM190PT cells are harvested by centrifugation, washed and resuspended in PBS+2.5% FCS+50% Matrigel (Corning #2165001) at 5×10^7 cells/ml. 100 μl cell suspension containing 5×10^6 cells is injected subcutaneously into the right flank of the mice (1 site per mouse). Mice are randomly distributed between the treatment and the vehicle control group (13 days after cell injection) when tumors are well established and have reached volumes of 100 to 180 mm^3.
Tumor volumes and side effects are monitored as described in Example 1 (see paragraph 1.1.6), except that control animals were analysed when the median tumor volume of the group reaches a size of approximately 700 mm^3.
The statistical evaluation of the tumor volume and the body weight is conducted on day 21 (last day of the study). Apart from this, statistical analysis was performed as described in Example 1 (see paragraph 1.1.7), with no evaluation of tumor growth after stop of treatment.

Experiment [3] has as its system T-DXd-resistant NCI-N87 cells. Nature of the experiment: Proliferation assay (CellTiter Glo), T-DXd resistant NCI-N87 cells. It is filed as cell-based, human. The note with it: 5 days of incubation, in vitro. The protocol:
Per well, 1000 cells are seeded in 40 μL medium in white, sterile 384-well culture plates (TC-treated; PerkinElmer #6007680) and incubated overnight in a humidified incubator at 37° C. and 5% CO2. 0.1% DMSO-control or serial compound dilution in triplicates are added. […] After 5 days of incubation with test compounds, the cells plates are measured upon addition of CellTiter Glo Luminescent Cell Viability Reagent (Promega, #G9243) to assess cell viability. The plates are placed on a shaker for five minutes and additionally incubated for 10 minutes at room temperature to induce cell lysis and to stabilize the luminescent signal. The luminescent signal of each well is measured in an EnSpire Multilabel Plate Reader 658 (PerkinElmer). The dose response curves are fit and visualized using Boehringer Ingelheim's proprietary software MegaLab and PRISM (GraphPad Inc.).

[4] abbreviates: zongertinib 20 mg/kg qdx21 p.o., T-DM1 10 mg/kg q21dx1 i.v., alone or combined.
[5] abbreviates: zongertinib 20 mg/kg/day, T-DM1 10 mg/kg, alone or combined.
[6] abbreviates: zongertinib 5 mg/kg qdx21 p.o., alone or combined with T-DM1 10 mg/kg q21dx1 i.v.

For “trastuzumab emtansine [T-DM1, reference compound]”, in experiment [1] (setting [4]), the “Regressions >30%” value is 1/8, the TGI was determined as 67% and the “Time to reach 300 mm^3” value was 39.5 days. In addition, the “effect on tumor growth (median tumor volumes over time)” value in experiment [1] (setting [5]) is listed as “suppressed the growth of NCI-N87 tumors but did not shrink them”. In addition, in experiment [2], the stable disease is recorded as 3, the “Regressions >30%” value was 0/8 and the TGI was 90%.

As for `C=CC(=O)NC1CCN(c2ncc3ncnc(Nc4ccc(Oc5ccc6c(c5)ncn6C)c(C)c4)c3n2)CC1` [Zongertinib, N-{1-[8-({3-methyl-4-[(1-methyl-1H-1,3-benzodiazol-5-yl)oxy]phenyl}amino)-[1,3]diazino [5,4-d]pyrimidin-2-yl]piperidin-4-yl}prop-2-enamide], in experiment [1] (setting [6]), the “Regressions >30%” value is 0/8, the TGI is 45% and the “Time to reach 300 mm^3” value worked out at 30.0 days. Besides, in experiment [1] (setting [4]), the “Regressions >30%” value is 8/8 and the TGI was 145%. Also, the “effect on tumor growth (median tumor volumes over time)” value in experiment [1] (zongertinib 5 mg/kg/day, alone or combined with T-DM1 10 mg/kg) is “did not shrink tumors”. In experiment [1] (setting [5]), the “effect on tumor growth (median tumor volumes over time)” value is “induced deep and persistent tumor shrinkage”. Moreover, in experiment [3], the “difference in IC50 between parental and T-DXd-resistant NCI-N87 cells” value is listed as “less than 10 fold”; the “sensitivity (dose response, cell viability)” value is “sensitive”. In experiment [2], the stable disease entry is recorded as “no stable disease”, the “Regressions >30%” value is 0/8 and the TGI was determined as 64%.

The values above are taken from patent US20250228858A1, “ANTI-CANCER COMBINATION THERAPY” (Boehringer Ingelheim International GmbH, priority 2023, published 2025).
